Reference: a melting point compilation (Tetko et al.)

melting point [°C] | Structure (SMILES)
85 to 90 | COC(=O)Cc1ccc(C(NC(=O)CCC(Cc2ccccc2)(NC(=O)c2ccc(N(C)C3CCc4cc5nc(C)n(COC(=O)C(C)(C)C)c(=O)c5cc43)cc2F)C(=O)O)C(=O)OC)cc1 (stereo unspecified)
189 to 194 | CS(=O)(=O)c1ccc(-c2nc(C(F)(F)F)nc(N3CCN(C(=O)c4cccs4)CC3)c2-c2ccccc2)cc1
154 to 157 | FC(F)(F)C1(CNC2=NCCN2)CCCCC1
181 to 182 | O=S(=O)(C(/C=C/c1ccc(I)cc1)c1ccc(Cl)cc1Cl)C(/C=C/c1ccc(I)cc1)c1ccc(Cl)cc1Cl (stereo unspecified)
269 | CC(C)(C)c1cc(C(C)(C)C)c2op(Op3oc4c(C(C)(C)C)cc(C(C)(C)C)cc4c4cc(C(C)(C)C)cc(C(C)(C)C)c4o3)oc3c(C(C)(C)C)cc(C(C)(C)C)cc3c2c1
86 to 88 | COc1cc(OC)c(/C=C/C(c2ccc(OC)c(NCCCC(=O)O)c2)S(=O)(=O)C(/C=C/c2c(OC)cc(OC)cc2OC)c2ccc(OC)c(NCCCC(=O)O)c2)c(OC)c1 (stereo unspecified)
108 to 111 | CC(C)[C@H](NC(=O)N(C)Cc1csc(N)n1)C(=O)N[C@@H](Cc1ccccc1)[C@H](O)[C@@H](O)[C@H](Cc1ccccc1)NC(=O)[C@@H](NC(=O)N(C)Cc1nccs1)C(C)C
-0.2 | Cc1ccc(Br)cc1C
84 to 88 | CC(C)[C@H](NC(=O)N(C)Cc1ccccn1)C(=O)N[C@@H](Cc1ccccc1)[C@H](O)[C@@H](O)[C@H](Cc1ccccc1)NC(=O)[C@@H](NC(=O)N(C)Cc1cscn1)C(C)C
195 to 205 | CC(C)(C)c1cc(Cc2cc(C(C)(C)C)cc(C(C)(C)C)c2Op2oc3c(C(C)(C)C)cc(C(C)(C)C)cc3c3cc(C(C)(C)C)cc(C(C)(C)C)c3o2)c(O)c(C(C)(C)C)c1
96 to 97 | CC(C)C(NC(=O)N(C)Cc1ccccn1)C(=O)NC(Cc1ccccc1)C(O)C(O)C(Cc1ccccc1)NC(=O)C(NC(=O)N(C)Cc1nccs1)C(C)C (stereo unspecified)
140 to 141 | CC(C)n1c(CC[C@@H](O)C[C@@H](O)CC(=O)O)c(-c2ccc(F)cc2)c(-c2ccccc2)c1C(=O)NCc1cccc(C(=O)O)c1
162 to 164 | C=CCCC(=O)Nc1c(I)c(C(=O)NC(COC(C)=O)COC(C)=O)c(I)c(C(=O)NC(COC(C)=O)COC(C)=O)c1I
52 | CCCCCCCCCCCCCCOc1ccc(N(CC(=O)OCc2ccccc2)CC(=O)OCc2ccccc2)cc1OCCCCCCCCCCCCCC
130 to 133 | CC(=O)OCC(CNC(=O)c1c(I)c(C(=O)NCC(COC(C)=O)OC(C)=O)c(I)c(N2CCCC2=O)c1I)OC(C)=O (stereo unspecified)
113 to 115 | C=CCN(CC=C)c1nc(NC(C)(C)CC(C)(C)C)nc(N(CCCCCCN(c2nc(NC(C)(C)CC(C)(C)C)nc(N(CC=C)CC=C)n2)C2CC(C)(C)NC(C)(C)C2)C2CC(C)(C)NC(C)(C)C2)n1
273 to 277 | CC(c1cc(C(C)(C)C)cc(C(C)(C)C)c1O)c1cc(C(C)(C)C)cc(C(C)(C)C)c1Op1oc2c(C(C)(C)C)cc(C(C)(C)C)cc2c2cc(C(C)(C)C)cc(C(C)(C)C)c2o1 (stereo unspecified)
-108 | FC(F)OC(Cl)C(F)(F)F (stereo unspecified)
233 to 236 | CC1(C)CC(Oc2nc(N(C3CC(C)(C)N(O)C(C)(C)C3)C3CC(C)(C)N(O)C(C)(C)C3)nc(N(C3CC(C)(C)N(O)C(C)(C)C3)C3CC(C)(C)N(O)C(C)(C)C3)n2)CC(C)(C)N1O
146 | CC(C)[Si](OC(=O)Cc1cc(I)c(Oc2cc(I)c(O)c(I)c2)c(I)c1)(C(C)C)C(C)C
72 to 74 | CCCCCCCCCCCCCCCC(=O)C(O)[C@](O)(C(=O)CCCCCCCCCCCCCCC)[C@@H](O)[C@H](O)[C@@](O)(C(=O)CCCCCCCCCCCCCCC)C(O)C(=O)CCCCCCCCCCCCCCC (stereo partly specified)
17 | CC(=O)OCC(O)CO (stereo unspecified)

melting point [°C] | Structure (SMILES)
235 | CS(=O)(=O)N1CC=C(C#Cc2ccc3c(c2)NC(=O)CC(c2cccc(C#N)c2)=N3)CC1
54 to 56 | CCCCCCCCCCCCCCCCCCOC(=O)C1(C(=O)OCCCCCCCCCCCCCCCCCC)COC2(CC(C)(C)NC(C)(C)C2)OC1
159 to 161 | COc1ccc(C(=CC2(C=C(c3ccc(OC)cc3)c3ccc(N4CCCC4)cc3)OC(=O)c3c(Cl)c(Cl)c(Cl)c(Cl)c32)c2ccc(N3CCCC3)cc2)cc1 (stereo unspecified)
204 to 205 | O=C(O)c1ccccc1Oc1ccc(C(F)(F)F)cc1N(S(=O)(=O)c1cc(C(F)(F)F)cc(C(F)(F)F)c1)S(=O)(=O)c1cc(C(F)(F)F)cc(C(F)(F)F)c1
294 to 296 | Nc1nc2sc(Cc3ccccc3)cc2c(=O)[nH]1
172 to 177 | COC(C)c1nc2c(N)nc3ccccc3c2n1CCOCCNC(=O)NCCCCCCCCNC(=O)NCCOCCn1c(C(C)OC)nc2c(N)nc3ccccc3c21 (stereo unspecified)
156 to 157 | COc1ccc(C(=O)c2ccc(OCc3nc(-c4ccccc4)oc3C)cc2)c(O)c1
63 to 65 | CCCCCCCCCCN(CCCCN(CCCN(CCCCCCCCCC)C(=O)c1cccc(O)c1O)C(=O)c1cccc(O)c1O)C(=O)c1cccc(O)c1O
150 to 152 | CCCCCCCCCCCCCCCCCCSCCOC1OC(COC(C)=O)C(OC2OC(COC(C)=O)C(OC3OC(COC(C)=O)C(OC(C)=O)C(OC(C)=O)C3OC(C)=O)C(OC(C)=O)C2OC(C)=O)C(OC(C)=O)C1N1C(=O)c2ccccc2C1=O (stereo unspecified)
212 to 213 | CCCNC(Cc1cc(I)c(Oc2cc(I)c(O)c(I)c2)c(I)c1)C(=O)O (stereo unspecified)
199 to 200 | CCOCc1nc2c(N)nc3cc(Br)ccc3c2n1CC1CCN(C(=O)CC(C)C)CC1
112 to 114 | CCC(Br)=C1NC(=O)N(C(C(=O)Nc2cc(NC(=O)C(CC)Oc3ccc(C(C)(C)CC)cc3C(C)(C)CC)ccc2Cl)C(=O)c2ccc(OC)cc2)C1=O (stereo unspecified)
238 to 240 | CCOC(=O)c1c(I)c(NS(=O)(=O)c2cccc3c(N(C)C)cccc23)c(I)c(N(CC)C(C)=O)c1I
147 to 149 | CC(=O)OC(COc1ccc(C(C)(C)c2ccc(OCC(CN3C(=O)NC4(CC(C)(C)N(C(C)=O)C(C)(C)C4)C3=O)OC(C)=O)cc2)cc1)CN1C(=O)NC2(CC(C)(C)N(C(C)=O)C(C)(C)C2)C1=O (stereo unspecified)
112 to 113 | Cc1ccc(S(=O)(=O)NNOC(C)C)cc1
291 to 293 | CC(C)(C)c1cc(CCC(=O)NN=C(O)c2cc(-c3ccc(C(=O)O)c(C(O)=NNC(=O)CCc4cc(C(C)(C)C)c(O)c(C(C)(C)C)c4)c3)ccc2C(=O)O)cc(C(C)(C)C)c1O
68 to 69 | O=C(CCS(=O)(=O)CCCl)OCC(COC(=O)CCS(=O)(=O)CCCl)(COC(=O)CCS(=O)(=O)CCCl)COC(=O)CCS(=O)(=O)CCCl
275 | O=C(c1ccc(I)cc1)c1cc2c3c(c1)C(c1cccc(Cl)c1)CC(=O)N3CC2 (stereo unspecified)
137 to 140 | COc1cc(OC)c(/C=C/C(c2ccc(OC)c(NC(=O)c3ccc(N)cc3)c2)S(=O)(=O)C(/C=C/c2c(OC)cc(OC)cc2OC)c2ccc(OC)c(NC(=O)c3ccc(N)cc3)c2)c(OC)c1 (stereo unspecified)
248 to 250 | CSC1=NCc2cc(Cl)ccc2-n2c(C)nnc21
137 to 138 | COc1c(Cl)nc(-c2ccc(Cl)c(OC)c2F)nc1Cl
5.2 | CCOCCCO

melting point [°C] | Structure (SMILES)
177 to 180 | CCCCCCCCCCCCCCCCS(=O)(=O)Nc1cccc2ccc(O)c(NS(=O)(=O)c3ccc(NC(C)=O)c4c(O)c(N=Nc5ccccc5OC)ccc34)c12
66 to 79 | CCC(COC(=O)CCc1cc(C(C)(C)C)c(O)c(C(C)(C)C)c1)(COC(=O)CCc1cc(C(C)(C)C)c(O)c(C(C)(C)C)c1)COC(=O)CCc1cc(C(C)(C)C)c(O)c(C(C)(C)C)c1
36 to 37 | CCCCCCCCCCCCCCCCCC(=O)OCC=C(C)CCC=C(C)CCC=C(C)CCC=C(C)CCC=C(C)CCC=C(C)CCC=C(C)CCC=C(C)CCC=C(C)C
102 to 104 | Cc1ccnc2nc(SCc3ccccc3)nn12
44 to 45 | CCCCCCCCCCCCSc1c(SCCCCCCCCCCCC)c(SCCCCCCCCCCCC)c(SCCCCCCCCCCCC)c(SCCCCCCCCCCCC)c1SCCCCCCCCCCCC
93.9 to 95 | CCCCCCCCCCOc1c(-c2nc3ccccc3s2)sc(-c2sc(-c3nc4ccccc4s3)c(OCCCCCCCCCC)c2OCCCCCCCCCC)c1OCCCCCCCCCC
57 to 57.5 | [C-]#[N+]Cc1nc2ccccc2o1
198 to 200 | O=S(c1cc(C(F)(F)F)[nH]c1-c1ccc(Cl)cc1)C(F)(F)F (stereo unspecified)
195 to 200 | NC(=O)c1c(I)c(C(=O)N(CC(O)CO)CC(O)CO)c(I)c(N(CC(O)CO)C(=O)CO)c1I (stereo unspecified)
126 to 127 | O=C1OC(O)c2cccc(F)c21 (stereo unspecified)
134 to 136 | CS(=N)(=O)Cc1ccc(Cl)nc1 (stereo unspecified)
110 to 130 | CC(=O)Nc1c(I)c(C(=O)N(C)CC(O)C(O)C(O)C(O)CO)c(I)c(N(C)C(C)=O)c1I (stereo unspecified)
227 | CC(=O)c1cc2cc(Br)ccc2oc1=O
92 to 94 | CC(C)[C@H](NC(=O)N(C)Cc1cscn1)C(=O)N[C@@H](Cc1ccccc1)[C@@H](O)[C@H](O)[C@H](Cc1ccccc1)NC(=O)[C@@H](NC(=O)N(C)Cc1cscn1)C(C)C
101 to 103 | CC(C)CCCC(C)C1CCC2C3CC=C4CC(NCCCCC(=O)NCCC(=O)NCCC(=O)NCCCCC(C(=O)O)N(CC(=O)O)CC(=O)O)CCC4(C)C3CCC12C (stereo unspecified)
29 to 30 | CCCCCCCCCCSc1c(SCCCCCCCCCC)c(SCCCCCCCCCC)c(SCCCCCCCCCC)c(SCCCCCCCCCC)c1SCCCCCCCCCC
85 to 89 | COC(=O)COc1ccccc1
86 to 91 | CCCCOC(=O)C(C)(C)Oc1ccc(-c2nc(-c3ccc(OC(C)(C)C(=O)OCCCC)cc3O)nc(-c3ccc(OC(C)(C)C(=O)OCCCC)cc3O)n2)c(O)c1
86 to 87 | CCCCCCCCCCOc1cc2c3c(c4cc(OCCCCCCCCCC)c(OCCCCCCCCCC)cc4c2cc1OCCCCCCCCCC)C(=O)C=CC3=O
255 | COc1cc(C2c3cc4c(cc3C(NC(=O)CNCCCN(CCCCNC(=O)OCc3ccccc3)C(=O)OCc3ccccc3)C3COC(=O)C23)OCO4)cc(OC)c1O (stereo unspecified)
221 to 223 | COC(=O)COC1C(NC(C)=O)C(OCc2ccccc2)OC(COCc2ccccc2)C1OC1OC(COCc2ccccc2)C(OCc2ccccc2)C(OCc2ccccc2)C1NC(C)=O (stereo unspecified)

Structure (SMILES) | melting point [°C]
Cc1c(Nc2c(C#N)cnc3sc(C4=CCN(C)CC4)cc23)ccc2[nH]ccc12 | 230
